Some test systems named below: ACHN; CAKI-1; COLO 205; EKVX; HCT-15; HL-60; HOP-92; MDA-MB-435; MDA-N; MOLT-4; NCI-H226; NCI-H460; OVCAR-5; OVCAR-8; RXF 393; SK-MEL-5; SK-OV-3; SN12C; UACC-257; UO-31.
Common to all, as to assay: NCI-60 cell line screen, 48 h

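Growth conditions: 96-well plates. Treatment: test compound, 48 hours, 5 concentrations. Analysis: linear interpolation between bracketing concentrations; unreached endpoints set to highest concentration. Here, GI50 denotes the concentration required for 50% inhibition of growth.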 Calls of active or inactive are those of the source. Rule as the data show it: active = GI50 up to about 1.1 µM and inactive = higher.

The source of these data is ChEMBL document CHEMBL1201862, “PubChem BioAssay data set” (2004).

`Cc1nc2ccccc2n1Cc1ccc(NC(=S)Nc2ccccc2)cc1`: the GI50 in the experiment with ACHN was 35.2 µM (inactive); in the experiment with CAKI-1, 77.4 µM (inactive); in the experiment on COLO 205 it was 34.8 µM (inactive); with EKVX, 21.1 µM (inactive); with HCT-15, 72.8 µM; in the experiment with HL-60, 24.8 µM (inactive). In addition, the GI50 in the experiment with HOP-92 was 61.9 µM (inactive); in the experiment with MDA-MB-435, 46.9 µM (inactive); in the experiment on MDA-N, 31 µM (inactive); with MOLT-4 it was 23.3 µM (inactive); with NCI-H226, 82.4 µM (inactive); with NCI-H460, 92.3 µM (inactive). Moreover, the GI50 in the experiment on OVCAR-5 is 37.1 µM (inactive); in the experiment on OVCAR-8, 60.1 µM (inactive); in the experiment on RXF 393 it was 60 µM (inactive); in the experiment on SK-MEL-5, 12.3 µM (inactive); in the experiment on SK-OV-3 it was > 100 µM (inactive); with SN12C, 76.4 µM (inactive). Besides, the values for the GI50 in the experiment on UACC-257 and in the experiment on UO-31 were 32.7 µM (inactive) and > 100 µM (inactive), respectively.
Regarding `CC(C)CNC(=O)CCc1cccc2c1oc1c(CCN)cccc12`, the GI50 in the experiment with ACHN is 12.8 µM (inactive); in the experiment on CAKI-1, 12.9 µM (inactive); with COLO 205, 5.86 µM (inactive); in the experiment with EKVX, 14.3 µM (inactive); with HCT-15, 24.1 µM; with HL-60 it was 2.53 µM (inactive). For the same compound, the GI50 in the experiment on HOP-92 was 5.7 µM (inactive); in the experiment on MDA-MB-435, 12.2 µM (inactive); with MDA-N it was 20.9 µM (inactive); in the experiment with MOLT-4, 11.8 µM (inactive); in the experiment on NCI-H226, 16.9 µM (inactive); in the experiment on NCI-H460 it was 18.2 µM (inactive). Further, the GI50 in the experiment with OVCAR-5 was 15.1 µM (inactive); in the experiment on OVCAR-8 it was 18.1 µM (inactive); in the experiment on RXF 393 it was 16 µM (inactive); with SK-MEL-5 it was 14.2 µM (inactive); in the experiment with SK-OV-3, 17 µM (inactive); in the experiment with SN12C, 17.4 µM (inactive). Besides, the values for the GI50 with UACC-257 and with UO-31 were 11.7 µM (inactive) and 12.4 µM (inactive), respectively.
With `CC(C)(C)OC(=O)CN1CCN(CC(=O)N2CCN(C(=O)OCc3ccccc3)CC2)CCN(CC(=O)OC(C)(C)C)CCN(CC(=O)N2CCN(C(=O)OCc3ccccc3)CC2)CC1`, the GI50 in the experiment with ACHN was 7.73 µM (inactive); in the experiment on CAKI-1 it was 10.1 µM (inactive); in the experiment on COLO 205 it was 1.15 µM (inactive); with EKVX it was 10.5 µM (inactive); in the experiment on HCT-15 it was 6.15 µM; in the experiment on HL-60, 0.225 µM (active). The GI50 with HOP-92 is 2.6 µM (inactive); in the experiment on MDA-MB-435, 2.13 µM (inactive); in the experiment with MDA-N it was 2.18 µM (inactive); with MOLT-4 it was 1.98 µM (inactive); in the experiment on NCI-H226, 3.84 µM (inactive); in the experiment on NCI-H460 it was 1.35 µM (inactive). The GI50 in the experiment with OVCAR-5 was 13.1 µM (inactive); in the experiment on OVCAR-8, 2.83 µM (inactive); in the experiment on RXF 393 it was 3.61 µM (inactive); in the experiment on SK-MEL-5, 1.71 µM (inactive); in the experiment with SK-OV-3, 3.47 µM (inactive); in the experiment with SN12C it was 2.76 µM (inactive). For the same compound, the GI50 is 2.54 µM (inactive) in the experiment with UACC-257 and 12.7 µM (inactive) in the experiment with UO-31.
In the case of `COC(=O)C1=C(OC(=O)/C(=C/c2ccccc2)c2ccc(Cl)cc2Cl)C(C(=O)OC)[C@@]2(O)[C@@H](C(=O)OC)[C@H](C)C[C@@H]1[C@@H]2C(=O)OC` (stereo not given in full), the GI50 in the experiment on ACHN is 42 µM (inactive); in the experiment on CAKI-1, > 100 µM (inactive); with COLO 205, > 100 µM (inactive); in the experiment with EKVX, > 100 µM (inactive); in the experiment on HCT-15, > 100 µM; with HL-60 it was > 100 µM (inactive). Moreover, the GI50 with HOP-92, with MDA-MB-435, in the experiment with MDA-N, in the experiment on MOLT-4, with NCI-H226 and with NCI-H460 was > 100 µM (inactive) each time. For the same compound, the GI50 with OVCAR-5 is > 100 µM (inactive); in the experiment on OVCAR-8 it was > 100 µM (inactive); in the experiment with RXF 393 it was > 100 µM (inactive); in the experiment with SK-MEL-5 it was 82.8 µM (inactive); in the experiment on SK-OV-3, > 100 µM (inactive); with SN12C it was > 100 µM (inactive). The GI50 with UACC-257 and with UO-31 was > 100 µM (inactive) each time.
Consider `CC[C@@H](C)[C@H](NC(=O)[C@H](Cc1ccccc1)NCC(F)(F)F)C(=O)OC(C)(C)C`, for which the GI50 with ACHN was > 100 µM (inactive); in the experiment on CAKI-1 it was > 100 µM (inactive); in the experiment with COLO 205, > 100 µM (inactive); with EKVX, > 100 µM (inactive); in the experiment with HCT-15, > 100 µM; in the experiment on HL-60 it was > 100 µM (inactive). For the same compound, the GI50 in the experiment on HOP-92 was > 100 µM (inactive); in the experiment on MDA-MB-435, > 100 µM (inactive); in the experiment on MDA-N, > 100 µM (inactive); with MOLT-4, 67.3 µM (inactive); with NCI-H226, 19.6 µM (inactive); in the experiment with NCI-H460, > 100 µM (inactive). Moreover, the GI50 with OVCAR-5 is > 100 µM (inactive); with OVCAR-8, > 100 µM (inactive); in the experiment on RXF 393, 42 µM (inactive); in the experiment on SK-MEL-5 it was > 100 µM (inactive); in the experiment on SK-OV-3 it was > 100 µM (inactive); in the experiment with SN12C it was > 100 µM (inactive). The GI50 in the experiment on UACC-257 was 81.5 µM (inactive); in the experiment with UO-31, > 100 µM (inactive).
